# Experimental data reported in paper PMC6290777, “Inhalation of the prodrug PI3K inhibitor CL27c improves lung function in asthma and fibrosis” (Nature Communications, 2018).
# Assays:
# PBMCs = PBMCs proliferation (MTT); assay type: cell-based, human
# Description: PBMCs in RPMI medium were seeded in a 96-well tissue culture plates at 5 × 10^3 cells/well (Cell Star, Frickenhausen, Germany). PBMCs were activated with vehicle (PBS) or anti-CD3 (5 μg/mL) plus soluble anti-CD28 (2 μg/mL) mAbs (BD Pharmingen, San Jose, CA, USA). Then, the cells were incubated at 37 °C and 5% CO2 for 48 h. Cell proliferation was assayed by MTT (3-(4,5-dimethylthiazol-2-yl)-2,5-diphenyltetrazolium bromide) assay (Roche Life Science, Mannheim, BW, Germany) following the manufacturer’s instructions. Briefly, 10 μL of MTT (3 mg/mL) was added to each well containing cells in 100 μL medium and incubated for 2 h at 37 °C. Then, 100 μL of lysis buffer was added allowing the dissolution of formazan crystals. After 15 min at room temperature the absorbance was read at 560 nm with reference of 690 nm using GloMax®-Multi Microplate Multimode Reader (Promega, Madison, Wisconsin, EUA).
# [1] = Microsomial stability, mouse; assay type: in vitro ADME; settings: mouse liver microsomes, NADPH
# Description: To define whether this prodrug was suitable for inhaled administration, CL27c was studied to evaluate selected ADME (absorption, distribution, metabolism, and excretion) and pharmacokinetic properties. First, stability of CL27c and CL27e was analyzed in mouse plasma (Supplementary Table 1) and in mouse, rat, and human liver microsomes in the presence of nicotinamide adenine dinucleotide phosphate (NADPH; Supplementary Table 2). Next, clearance of CL27c was analyzed in C57BL/6J mice after either intra-venous or oral administration. […] Clearance of CL27c and CL27e after oral administration could not be determined due to their low bioavailability (Supplementary Table 3). […]
# obtained at 200 × magnification were analyzed using the software Image -J (NIH, USA). Results were expressed as extracellular matrix deposition area (pixels). […]
# Akt phosphorylation was measured by western blot as described in the “Western blot analysis” in […]
# Cells were obtained from Lymph nodes and spleen from naive C57Bl/6J and purified with CD4 T cell isolation Kit (Miltenyi Biotec #130-104-454) and with CD25 biotin (eBioscience #13-0252-81) and microbeads anti-biotin (Miltenyi Biotec #130-090-485). […] Positive stained cells were analyzed with FlowJo X software after removal of doublets events and debris through FSC-A/FSC-H gating.
structure (smiles),measurement,setting,value
COC(=O)c1cccc(Cn2cc(-c3cccc4c(=O)cc(N5CCOCC5)[nH]c34)nn2)c1 [CL27c],anti-proliferative effect on PBMC relative to dexamethasone,PBMCs; CL27c 5 μM,comparable to the reference compound dexamethasone
same,proliferation of PBMC,"PBMCs; stimulated with antibodies against CD28, CL27c 0.5 and 5 µM, concentration-dependent",block proliferation
same,Clint (intrinsic clearance),[1],0.1 ± 0.02 ml/min/mg prot
same,t1/2,[1],12.4 ± 2.0 min
